Source: ChEMBL document CHEMBL1135594 (J Med Chem, 2002)
Calls of active or inactive are those of the source. The calls are words filed in the database; no cut-off is given here.

How the values were obtained:
[1] = biological target: T1, Histidine-rich protein PFHRP-II (Plasmodium falciparum, UniProt P05227); assay: Inhibition of beta-hematin formation; type: functional
T1 sequence (P05227 whole entry): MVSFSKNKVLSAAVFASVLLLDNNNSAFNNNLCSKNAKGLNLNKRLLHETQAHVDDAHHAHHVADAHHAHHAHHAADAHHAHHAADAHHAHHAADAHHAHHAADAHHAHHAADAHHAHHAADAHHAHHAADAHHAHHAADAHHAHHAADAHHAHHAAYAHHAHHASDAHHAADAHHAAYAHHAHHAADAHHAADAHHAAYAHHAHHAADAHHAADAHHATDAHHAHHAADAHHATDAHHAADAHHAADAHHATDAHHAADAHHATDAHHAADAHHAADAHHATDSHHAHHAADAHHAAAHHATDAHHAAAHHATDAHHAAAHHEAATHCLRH

Plasmodium falciparum [2] = assay: microbe, parasite or virus in culture
Plasmodium falciparum [3] = assay: microbe, parasite or virus in culture; remark: listed apart in the source
Plasmodium falciparum [4] = assay: microbe, parasite or virus in culture; remark: listed apart in the source
Plasmodium falciparum [5] = assay: microbe, parasite or virus in culture; remark: listed apart in the source
[6] = Resistance factor as the ratio of IC50 against Plasmodium falciparum K1 to that of Plasmodium falciparum HB3.; type: functional
Plasmodium falciparum [7] = assay: Displacement of chloroquine from Fe(3+) FPIX-loaded membrane; type: functional
Plasmodium falciparum [8] = assay: Inhibition of chloroquine uptake from intact parasites; Not active; type: functional, organism-based

SMILES	IC50 [1] [µM]	IC50 (Plasmodium falciparum [2]) [µM]	IC50 (Plasmodium falciparum [3]) [nM]	IC50 (Plasmodium falciparum [4]) [nM]	IC50 (Plasmodium falciparum [5]) [nM]	Resistance factor [6]	IC50 (Plasmodium falciparum [7]) [µM]	NA (Plasmodium falciparum [8])
Clc1ccc2c(NCCN3CCCC3)ccnc2c1	78	5.94	6.8	1620	13.2	–	–	–
CCN(CC)CCCC(C)Nc1ccnc2cc(Cl)ccc12 (stereo not drawn)	–	–	–	–	–	10	–	–
Clc1ccc2c(NCCN3CCCCC3)ccnc2c1	86	7.65	6.8	910	13	–	–	–
FC(F)(F)c1ccc2c(NCCN3CCCCC3)ccnc2c1	65	8.39	10.6	2030	22.2	2.09	–	–
CC(C)(C)NCCNc1ccnc2cc(C(F)(F)F)ccc12	71	–	5.5	2090	9.8	1.78	4.96	–
CC(C)(C)NCCNc1ccnc2cc(Cl)ccc12	70	3.94	4.3	710	15.3	–	–	–
Clc1ccc2c(NCCN3CCOCC3)ccnc2c1	102	24.9	150	–	240	–	–	inactive
